Here are results for 1 compound from US11376242B2, “Methods and compositions for treating obesity and/or diabetes and for identifying candidate treatment agents” (The J. David Gladstone Institutes, a testamentary trust …, priority 2016, dated 2022).

Experiment [1] concerns mRNA level of these genes in mouse MEF cells. As to the kind of experiment: qPCR assay of ClpP substrates in MEF cells treated with ClpP inhibitor. The experiment is classed as cell-based. The following applies: 10 μM twice a day for 2 days (48 hr), qPCR (FIG. 26). Here is the method: (§1) Wild type mouse MEF cells were seeded at 200,000 cells per well at 6 well plates the day before treatment. Cells were treated with the small molecule ClpP inhibitors A2-32-01, AV167, and AV179 (described previously herein) at 10 μM in OPTI-MEM twice a day for 2 days (48 hr). For each treatment, the old medium will be removed and fresh medium added to the wells. After 48 hr treatment, the cells were harvested for western blot analysis or qPCR assay of ClpP substrates.
A general note: In qPCR the cycle at which signal appears reflects the starting amount.

For experiment [2], the system named is ClpP substrate protein levels in mouse MEF cells. As to the kind of experiment: Western blot analysis of ClpP substrates in MEF cells treated with ClpP inhibitors. Format: cell-based. As to conditions: 10 μM in OPTI-MEM twice a day for 2 days (48 hr); wild type mouse MEF cells; western blot (FIGS. 24 and 25). Here is the method: (§2) Western blot. Tissues or cells were lysated in low-detergent buffer (50 mM Tris/HCl, pH 8.0, 150 mM NaCl, 0.1% SDS, 0.5% Nonidet P-40, 0.5% sodium deoxycholate) with a mixture of protease inhibitors. Phosphatase inhibitors were also included in the lysate buffer. The lysates were centrifuged at 13,000 rpm for 10 min to remove the pellets. SDS-PAGE was performed with a NuPAGE bis-tris system from Invitrogen, following the vendor's protocol. A standard western blot protocol was used with IRDye-labeled secondary antibodies (Li-cor). A Li-cor image system was used to scan the western blot images.
as §1
Background: A western blot detects proteins with antibodies after separation by electrophoresis.

Experiment [3] concerns db/db mice (a model of obesity, diabetes, and dyslipidemia). Put plainly: In vivo treatment of db/db mice. The arrangement: species or system mouse. As to the method: (§3) Measurement of blood glucose and plasma insulin. Blood glucose was measured with a glucometer and glucose test strips (Free Style Lite). Plasma insulin was quantified with an insulin Elisa kit (Crystal Chem).
(§4) Glucose, insulin, and pyruvate tolerance tests. Glucose, insulin, and pyruvate tolerance tests were performed by intraperitoneal injection of glucose (2 g/kg), insulin (0.5 units/kg) or pyruvate (2 g/kg) after an overnight fast for glucose and pyruvate or a 4-h fast for insulin. Blood glucose levels were measured before injection and at different time points after injection. To assess glucose-stimulated insulin release, mice fasted overnight (for 16 h) and were then injected intraperitoneally with glucose (2 g/kg). Blood samples were collected from tail veins before injection and at different time points after injection.
(§5) Histological analysis. Tissues (liver, visceral adipose, gastrocnemius muscle, interscapular brown adipose, and pancreas) were fixed in 4% paraformaldehyde (pH 7.4) overnight, embedded in paraffin, and serially sectioned at 7-8 μm. Standard haematoxylin and eosin staining was performed.

The target of experiment [4] is T1, ClpP (Mus musculus, UniProt O88696).
T1 construct: ClpP activity was lower in liver mitochondrion lysates from A2-32-01-treated mice compared to those from vehicle-treated mice; from tissue; host or cells: liver mitochondria of HFD-fed wild-type mice dosed in vivo with A2-32-01
As to the kind of experiment: ClpP activity in liver mitochondria lysates from treated db/db mice. The experiment is classed as in vivo. The following applies: vs vehicle (FIG. 35 panel E).

Experiment [5] relates to high fat diet (HFD)-induced obesity and diabetes mouse models. Put plainly: In vivo treatment in high fat diet (HFD)-induced obesity and diabetes mouse model.
From the text: Animals. All mice were maintained on a 12-h light/dark cycle in a pathogen-free animal facility. Mice were separately housed by their genotypes for all metabolic studies. For high-fat diet (HFD)-induced obesity studies, animals were fed a HFD (21% by weight, 42% kcal from fat, 0.2% total cholesterol; TD.01064, Harlan-Teklad) for specified periods. Anesthesia was induced with isoflurane (survival procedures) or with avertin (terminal procedures). All procedures were approved by the UCSF Animal Research Committee and followed NIH guidelines. Animal sample sizes for different assays were chosen based on previous literature. Animals were grouped according to genotype; no randomization was used. For all behavior tests, all animal IDs were blinded to tester. Testers were not blinded for other assays.
as §3, §4, §5
7-9 month old WT female (20 mice), were fed with high fat diet for 3 weeks. Body weight change and blood glucose/plasma insulin levels in response to HFD were measured. At the beginning of the 4th week, for treatment group, A2-32-01 was injected peritoneally twice daily at 300 mg/kg for 8 days. For the control group, corn oil (vehicle) was injected. The mice were maintained on HFD. The body weight change was followed every day. At the 8th day of A2-32-01 injection, blood glucose levels were measured, and a glucose tolerance test was applied to measure insulin sensitivity.
(§6) The in-vivo analysis described in Examples 9 and 10 was continued in accordance with the experimental protocol shown in FIG. 30.

Experiment [6] has as its system tentative ClpP effectors (Trap1, ClpX, LRPPRC, LonP, and OAT). Put plainly: Western blot of tentative ClpP effectors in liver mitochondrion lysates from treated HFD-fed mice. The experiment is classed as in vivo, mouse. The following applies: HFD-fed WT mice, vs vehicle-treated (FIG. 32 right panel). Here is the method:
as §2
(§7) The in-vivo analysis of Example 9 is continued, with collection of the blood and multiple organs (liver/muscle/brain) at day 9 of A2-32-01 injection. Mitochondria are isolated from mouse liver and ClpP activity is tested using peptide substrates, e.g., as described herein. Western blot analysis is performed to detect ClpP substrate levels.
as §6

Experiment [7] addresses T1, ClpP. Put plainly: ClpP activity in liver mitochondrion lysates from treated HFD-fed mice. Format: in vivo. As to conditions: HFD-fed WT mice; vs vehicle-treated (FIG. 32 left panel). Here is the method: as §7, §6
Where [8] appears, read: H&E and oil red staining, vs vehicle (FIG. 36).
Setting [9] is: WT mice on HFD, H&E and oil red staining, vs vehicle (FIG. 33).

Molecules are shown by their SMILES.

T1 sequence (O88696 53-272): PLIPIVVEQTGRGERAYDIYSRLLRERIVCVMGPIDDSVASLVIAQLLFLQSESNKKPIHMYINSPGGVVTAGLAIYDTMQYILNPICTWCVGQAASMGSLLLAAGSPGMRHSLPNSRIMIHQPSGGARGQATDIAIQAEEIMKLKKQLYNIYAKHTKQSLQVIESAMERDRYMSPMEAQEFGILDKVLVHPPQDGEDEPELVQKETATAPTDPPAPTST

For the compound `C=CCCCCCCC[C@H]1C(=O)O[C@@H]1CCc1cccnc1` (racemic) [A2-32-01, (3RS,4RS)-3-(non-8-en-1-yl)-4-(2-(pyridin-3-yl)ethyl)oxetan-2-one], the “mRNA level of ClpP substrate genes” value in experiment [1] is listed as “remained unchanged”. For the same compound, in experiment [2], the “ClpP substrate protein levels” value was “increased”. For the same compound, the “lipid accumulation in liver cells” value in experiment [3] (setting [8]) and in experiment [5] (setting [9]) was “lowered” throughout. For the same compound, the “morphology of liver cells” value in experiment [3] (setting [8]) and in experiment [5] (setting [9]) was “restored normal morphology” in each case. In addition, the body weight result is given as “significantly decreased” in experiment [3] (at the end of the treatment, vs vehicle (FIG. 34 panel B)); “significant decrease” in experiment [5] (300 mg/kg peritoneally twice daily, day 2 through day 7, HFD-fed WT female mice, vs vehicle control (FIG. 28)); “significantly decreased” in experiment [5] (Example 11, mice on HFD, vs vehicle-treated (FIG. 31 left panel)). For the same compound, the “insulin sensitivity (glucose tolerance tests)” value in experiment [3] (vs vehicle (FIG. 35 panel C)) is “increased”; in experiment [5] (Example 11, HFD-fed WT mice, vs vehicle (FIG. 31 right panel)), “increased”. For the same compound, the “fasting blood glucose levels” value in experiment [3] (vs vehicle (FIG. 35 panel D)) is given as “significantly lower”. Moreover, the “ClpP activity in liver mitochondria lysates” value on ClpP [4] is given as “lower”. Besides, the “insulin sensitivity (glucose tolerance test)” value in experiment [5] (300 mg/kg peritoneally twice daily, day 8, HFD-fed WT mice, vs vehicle control (FIG. 29)) is “significant improvement”. The “levels of tentative ClpP effectors (Trap1, ClpX, LRPPRC, LonP, and OAT) in liver mitochondrion lysates” value in experiment [6] is on record as “higher”. In addition, the “ClpP activity in liver mitochondrion lysates” value at ClpP [7] is on record as “lower”.
